Measured values taken from patent publication US20210369846A1 (priority 2018, published 2021).
“And” between values parts separate entries of the source, which are not always exact repeats. Equal entries are not always repeated. “Also recorded” adds a separate entry of the source. Marks after values point to notes of the source that are not given here.

How the values were obtained:
[1] = test system: HMEC-1 human vascular endothelial cells
[2] = test system: L929 mouse fibroblasts
[3] = test system: blood
[4] = test system: L929 and HMEC-1 cell lines
[5] = test system: male Sprague Dawley rats; assay: Red blood cells substitute in vivo test: gradual bleeding with compensation in rats under general anaesthesia; parameters: species or system rat; conditions: for Amount of 5-min intervals (duration until cardiac cessation, per rat): exchange of 5% of blood volume per interval; for Amount of 5-min intervals (duration until cardiac cessation, per rat) / Amount of 5-min intervals expressed in min (per rat): individual rats; for Systolic blood pressure was >40 mm Hg for: tail cuff; for pH maintained at 7.3 up to: venous blood; for Hematocrit at the end of the experiment: gradual decrease from physiological values
Procedure: The study protocol was approved by the Local Ethical Committee (No. WAW2/057/2018), Warsaw University of Life Sciences, Warsaw, Poland. Study was carried out by the Department of Large Animal Diseases with the Clinic of the Faculty of Veterinary Medicine of the Warsaw University of Life Sciences in Warsaw. The study involved male Sprague Dawley rats (n=19; weight, 400±20 g; age, 8 to 12 weeks) obtained from the Mossakowski Medical Research Centre, Polish Academy of Sciences (Warsaw, Poland) divided into 4 non-equal groups (table below). The animals were kept in accordance with national animal welfare guidelines.
12 h before the experiment, feedstuffs were removed from animals' cages without restrictions to the water. Animals were weighted for circulating blood volume calculation according to Lee and Blaufox (1985) and anesthetized by intramuscular injection of the mixture of Ceptor—0.1 mL (Scanvet), Butomidor—0.1 mL (Richter Pharma AG) and Bioketan—0.1 mL (Vetoquinol). Within 2 min after injection, animals were placed in the dorsal position, on Thermo-Controlled Surgery Platform (Braintree Scientific, USA) and the catheter for blood collection was implanted.
A silicone catheter (Scientific Commodities INC, USA) was inserted into the left common jugular vein towards the heart and fastened with a tie (non-absorbable twisted strand, 4-0) for best fluid delivery and blood sampling. The catheter was kept filled with Ringer's fluid between the blood removals. The catheter's patency was maintained without the use of anti-clotting agents. The skin was not stitched, a swab moistened with saline solution was applied to the wound. Then the rats were transferred to a GN 1/1 electric heating plate (temp. 37±1° C., Bartscher, Poland), where a cuff was applied to the rat's tail to measure bloodless tail blood pressure (MLT125R, ADI, Australia), connected to the system NIBP (Non-Invasive Blood Pressure, ADI, Australia) and eight-channel PowerLab (ADI, Australia) and PC. Throughout the experiment, pulse and blood pressure were recorded in the Chart program (ADI, Australia). During the entire experiment, systolic and mean arterial blood readings were taken up to a blood pressure systolic threshold reading of 40 mm Hg between blood collections.
A total of 4 experiment variants were performed, as in the table above, using the method of gradual bleeding with compensation described in the previous experiment (5% of circulating blood). Compensations were used in subsequent experiments: Voluven fluid (Hydroxyethyl starch (HES 130/0.4), dextran 130 kDa, Fresenius Kabi) and formulations 2j3c, 2j3e and 2l3e (NanoSanguis) administered in Voluven fluid (concentration 0.5% w/v).
In venous blood samples, blood gas determinations (Siemens EPOC gasometer) were performed: pH, pCO2 (CO2 pressure, mm Hg), pO2 (oxygen pressure, mm Hg), cHCO3-(bicarbonate ion concentration, mmol/L), BE (ecf) (deficiency in blood buffering bases, mmol/L), hematocrit (Hct, %, less precise measurement than in a morphology analyzer), glucose (mg/dL), lactate (Lac, mmol/L), creatinine (Crea, mg/dL) followed by morphology (Mindray analyzer): hematocrit (hct, %), hemoglobin (g/L), red blood cell count (RBC, 10^12/L), white blood cell count (WBC, ×10^9/L) and platelet count (PLT, ×10^9/L). […] The results are given in the attached Excel spreadsheet. Blood for other biochemical analyses was centrifuged and frozen (−20° C.). Collected organ (liver, kidney, lung and heart) samples were fixed in buffered formalin, and after 48 hours. transferred to 70% ethyl alcohol and stored for histological examination. Histological examination was performed after routine staining of the hematoxylin and eosin sections.

[6] = Particle size distribution of O/W emulsions with Accusizer 780 Optical Particle Sizer; type: physicochemical; conditions: O/W emulsion; footnote c: measured with Accusizer 780 Optical Particle Sizer
Procedure: In an exemplary method of preparation, 180 mg of the surfactant was dissolved in 9 mL of ultrapure water (MilliQ), then 1 mL of Perfluorodecalin was added to the solution. The mixture was sonicated using an UP400St Hielscher ultrasonic homogenizer. Operation parameters of the device: A=90% (amplitude), continuous operation mode, sonotrode type—H14. The process of ultrasonic homogenization was carried out for about 2 minutes, while the reaction vessel was intensely cooled using an ice bath. 10 mL of the o/w emulsion with 10% v/v of the perfluorinated phase relative to the aqueous phase was obtained. As can be appreciated, this method is merely exemplary, and other methods or preparation approaches may be used.
The emulsion particle size distribution was determined using the Accusizer 780 Optical Particle Sizer PSS NICOMP device. A series of dilutions of the analyzed emulsion were prepared: 10-fold, 100-fold and 1000-fold with ultrapure water (MilliQ), in triplicate. The particle size distribution of the 1000-fold diluted emulsion was examined, a minimum of 3 measurements were taken, preparing approximately 30 mL of the diluted emulsion for each one of them. The results were presented by the several values: the average diameter (given in μm), and the percentage number of particles in different ranges (for example, in the diameter range 0.5-2 μm, 2-5 μm, 5-10 μm, >10 μm). The values from these three measurements were averaged and standard deviation was calculated.

Structure (SMILES) | Maximum Non-Cytotoxic Concentration HMEC-1 [1] | Maximum Non-Cytotoxic Concentration L929 [2] | Maximum Non-Hemolytic Concentration [3] | Average diameter [6] | also measured
O=C(O)CCCC(=O)OCCC(F)(F)C(F)(F)C(F)(F)C(F)(F)C(F)(F)C(F)(F)C(F)(F)C(F)(F)F [2l3k] | >1.00% | >1.00% | >2.00% | – | Cytotoxic potential [4]: low cytotoxic potential
O=C(O)CCCC(=O)OCCC(F)(F)C(F)(F)C(F)(F)C(F)(F)C(F)(F)C(F)(F)C(F)(F)C(F)(F)F [2l3e] | >2.00% | >2.00% | >2.00% | – | Survival of rats higher compared to the control group receiving Voluven ([5]; 0.5% w/v in Voluven): 10 intervals; Amount of 5-min intervals (duration until cardiac cessation, per rat) ([5]; 0.5% w/v in Voluven): 10 5-min intervals and 13 5-min intervals and 21 5-min intervals and 28 5-min intervals and 31 5-min intervals; Amount of 5-min intervals expressed in min (per rat) ([5]; 0.5% w/v in Voluven): 155 min and 60 min and 75 min and 105 min and 140 min; Systolic blood pressure was >40 mm Hg for ([5]; 0.5% w/v in Voluven): 18-22 intervals; pH maintained at 7.3 up to ([5]; 0.5% w/v in Voluven): 20-21 intervals; Change caused slower in comparison to the control group ([5]; control: Voluven): pH decrease; also recorded: increase in pCO2; also recorded: decrease in buffer base deficiency; also recorded: increase of lactate and creatinine
O=C([O-])CCC(=O)OCCC(F)(F)C(F)(F)C(F)(F)C(F)(F)C(F)(F)C(F)(F)F.[K+] [2iK] | 0.25% | <0.25** % | 0.02% | 880 ± 40 ^c nm | –
O=C(O)CCC(=O)OCCC(F)(F)C(F)(F)C(F)(F)C(F)(F)C(F)(F)C(F)(F)C(F)(F)C(F)(F)F [2j3c] | 0.5% | 0.25% | >2.00% | – | Lactate concentration above physiological values (limit 8.5 mmol/L) occurred at intervals ([5]; 0.5% w/v in Voluven): 15 intervals and 19 intervals; RBC at the end of the experiment ([5]; 0.5% w/v in Voluven): ~2e+12 L⁻¹; Survival of rats higher compared to the control group receiving Voluven ([5]; 0.5% w/v in Voluven): 7 intervals; WBC at the end of the experiment ([5]; 0.5% w/v in Voluven): ~1e+09 L⁻¹; Amount of 5-min intervals (duration until cardiac cessation, per rat) ([5]; 0.5% w/v in Voluven): 24 5-min intervals and 23 5-min intervals and 18 5-min intervals (2×) and 11 5-min intervals; Hematocrit at the end of the experiment ([5]; 0.5% w/v in Voluven): about 9%; Amount of 5-min intervals expressed in min (per rat) ([5]; 0.5% w/v in Voluven): 55 min and 120 min and 115 min and 90 min (2×); Systolic blood pressure was >40 mm Hg for ([5]; 0.5% w/v in Voluven): 12 intervals and 20 intervals; pH maintained at 7.3 up to ([5]; 0.5% w/v in Voluven): 13 intervals and 17 intervals
O=C(O)CCC(=O)OCCC(F)(F)C(F)(F)C(F)(F)C(F)(F)C(F)(F)C(F)(F)C(F)(F)C(F)(F)F [2j3e] | 0.5% | 0.5% | 1% | – | Buffer balance deficiency (Be (ecf)) occurred at ([5]; 0.5% w/v in Voluven): 14-19 intervals; Lactate concentration above physiological values (limit 8.5 mmol/L) occurred at intervals ([5]; 0.5% w/v in Voluven): 13-19 intervals; Survival of rats higher compared to the control group receiving Voluven ([5]; 0.5% w/v in Voluven): 8 intervals; Amount of 5-min intervals (duration until cardiac cessation, per rat) ([5]; 0.5% w/v in Voluven): 15 5-min intervals and 17 5-min intervals and 21 5-min intervals and 25 5-min intervals and 29 5-min intervals; Hematocrit at the end of the experiment ([5]; 0.5% w/v in Voluven): about 5%; Amount of 5-min intervals expressed in min (per rat) ([5]; 0.5% w/v in Voluven): 145 min and 75 min and 85 min and 105 min and 125 min; pH maintained at 7.3 up to ([5]; 0.5% w/v in Voluven): 13 intervals and 20 intervals; Maintaining systolic pressure above the limit, comparing to other test groups ([5]; limit 40 mm Hg): longer
O=C(O)CSCCC(F)(F)C(F)(F)C(F)(F)C(F)(F)C(F)(F)C(F)(F)C(F)(F)C(F)(F)F [2a3d] | 0.1% | 0.2% | 0.02% | 640 ± 10 ^c nm | –
O=C([O-])CSCCC(F)(F)C(F)(F)C(F)(F)C(F)(F)C(F)(F)C(F)(F)C(F)(F)C(F)(F)F.[K+] [2aK] | 1% | 1% | >2.00% | 770 ± 20 ^c nm | –
O=C([O-])CCC(=O)OCCC(F)(F)C(F)(F)C(F)(F)C(F)(F)C(F)(F)C(F)(F)C(F)(F)C(F)(F)F.[Na+] [2jNa] | 0.5% | <0.25% | 1% | 820 ± 20 ^c nm | –
O=C(O)CSCCC(F)(F)C(F)(F)C(F)(F)C(F)(F)C(F)(F)C(F)(F)C(F)(F)C(F)(F)F [2a3b] | 0.5% | 0.5% | 0.25% | 640 ± 10 ^c nm | –
O=C([O-])CSCCC(F)(F)C(F)(F)C(F)(F)C(F)(F)C(F)(F)C(F)(F)C(F)(F)C(F)(F)F.[Na+] [2cNa] | 0.2% | 1% | 0.5% | 710 ± 20 ^c nm | –
O=C([O-])CCC(=O)OCCC(F)(F)C(F)(F)C(F)(F)C(F)(F)C(F)(F)C(F)(F)C(F)(F)C(F)(F)F.[K+] [2jK] | 0.5% | <0.25% | >2.00% | 1090 ± 10 ^c nm | –
